Measured values published in patent publication US10206394B2, “Herbicidal compounds” (Syngenta Participations AG, priority 2014, dated 2019).
Read-outs that look alike come from different tables or passages of the source.

Assays:
Assay in all cases: Glasshouse assay for herbicidal activity (pre- and post-emergence), percentage phytotoxicity
Type in all cases: in vivo
[1] = test system: Echinochloa crus-galli (ECHCG); details: Echinochloa crus-galli, 250 g/ha, visual assessment (100%=total damage, 0%=no damage)
In short: (§1)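 Pot-grown plants treated one day after sowing (pre-emergence) or at about 12 days (post-emergence); glasshouse at 24/18° C (warm) or 20/16° C (cool species) day/night, 16 h light, 65% humidity. Visual % phytotoxicity (0 = none, 100 = total damage) scored at 15 DAA post or 20 DAA pre.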

Avena fatua (AVEFA) = details: Avena fatua, 250 g/ha, visual assessment (100%=total damage, 0%=no damage)
In short: as §1

[2] = test system: Alopecurus myosuroides (ALOMY); details: Alopecurus myosuroides, 250 g/ha, visual assessment (100%=total damage, 0%=no damage)
In short: as §1

Lolium perenne (LOLPE) = details: Lolium perenne, 250 g/ha, visual assessment (100%=total damage, 0%=no damage)
In short: as §1

[3] = post-emergence, 360 h, post-emergence, 15 DAA, read-out: Post-emergence herbicidal activity (percentage phytotoxicity) ECHCG POST
[4] = pre-emergence, 480 h, pre-emergence, 20 DAA, read-out: Pre-emergence herbicidal activity (percentage phytotoxicity) ECHCG PRE
[5] = post-emergence, 360 h, post-emergence, 15 DAA, read-out: Post-emergence herbicidal activity (percentage phytotoxicity) AVEFA POST
[6] = pre-emergence, 480 h, pre-emergence, 20 DAA, read-out: Pre-emergence herbicidal activity (percentage phytotoxicity) AVEFA PRE
[7] = post-emergence, 360 h, post-emergence, 15 DAA, read-out: Post-emergence herbicidal activity (percentage phytotoxicity) ALOMY POST
[8] = pre-emergence, 480 h, pre-emergence, 20 DAA, read-out: Pre-emergence herbicidal activity (percentage phytotoxicity) ALOMY PRE
[9] = post-emergence, 360 h, post-emergence, 15 DAA, read-out: Post-emergence herbicidal activity (percentage phytotoxicity) LOLPE POST
[10] = pre-emergence, 480 h, pre-emergence, 20 DAA, read-out: Pre-emergence herbicidal activity (percentage phytotoxicity) LOLPE PRE

Question: With `Cc1cc(-c2nc(C#N)cs2)cc(C)c1C1C(=O)CC(CC(=O)NC(C)(C)C)C1=O` (centres unmarked) [Compound B30] as the compound, how does the pest or weed control at 250 g/ha [1, 3] read?
Answer: Its pest or weed control at 250 g/ha is 80%.

Question: And the pest or weed control at 250 g/ha [1, 4]?
Answer: The pest or weed control at 250 g/ha was 70%.

Question: And the pest or weed control at 250 g/ha (Avena fatua (AVEFA); [5])?
Answer: The pest or weed control at 250 g/ha was 90%.

Question: And the pest or weed control at 250 g/ha (Avena fatua (AVEFA); [6])?
Answer: The pest or weed control at 250 g/ha was 70%.

Question: And the pest or weed control at 250 g/ha [2, 7]?
Answer: Its pest or weed control at 250 g/ha is 70%.

Question: And the pest or weed control at 250 g/ha [2, 8]?
Answer: The pest or weed control at 250 g/ha was 60%.

Question: What about the pest or weed control at 250 g/ha (Lolium perenne (LOLPE); [9]) of the same compound?
Answer: Its pest or weed control at 250 g/ha is 30%.

Question: What about the pest or weed control at 250 g/ha (Lolium perenne (LOLPE); [10]) of the same compound?
Answer: Its pest or weed control at 250 g/ha is 70%.

Question: Which pest or weed control at 250 g/ha [1, 3] does the source give for `Cc1cc(C)c(C2C(=O)CC(CC(=O)NC(C)C3CC3)C2=O)c(C)c1` (centres unmarked) [Compound B31] here?
Answer: Its pest or weed control at 250 g/ha is 80%.

Question: And the pest or weed control at 250 g/ha [1, 4]?
Answer: The pest or weed control at 250 g/ha was 90%.

Question: What about the pest or weed control at 250 g/ha (Avena fatua (AVEFA); [5]) of the same compound?
Answer: The pest or weed control at 250 g/ha was 80%.

Question: And the pest or weed control at 250 g/ha (Avena fatua (AVEFA); [6])?
Answer: Its pest or weed control at 250 g/ha is 70%.

Question: What about the pest or weed control at 250 g/ha [2, 7] of the same compound?
Answer: The pest or weed control at 250 g/ha was 80%.

Question: What about the pest or weed control at 250 g/ha [2, 8] of the same compound?
Answer: Its pest or weed control at 250 g/ha is 100%.

Question: What about the pest or weed control at 250 g/ha (Lolium perenne (LOLPE); [9]) of the same compound?
Answer: The pest or weed control at 250 g/ha was 80%.

Question: And the pest or weed control at 250 g/ha (Lolium perenne (LOLPE); [10])?
Answer: Its pest or weed control at 250 g/ha is 90%.

Question: What does the source list for `Cc1cc(C)c(C2C(=O)CC(CC(=O)NC3(C)CCC3)C2=O)c(C)c1` (centres unmarked) [Compound B32]?
Answer: pest or weed control at 250 g/ha [1, 3]: 80%; pest or weed control at 250 g/ha [1, 4]: 80%; pest or weed control at 250 g/ha (Avena fatua (AVEFA); [5]): 40%; pest or weed control at 250 g/ha (Avena fatua (AVEFA); [6]): 0%; pest or weed control at 250 g/ha [2, 7]: 70%; pest or weed control at 250 g/ha [2, 8]: 90%; pest or weed control at 250 g/ha (Lolium perenne (LOLPE); [9]): 50%; pest or weed control at 250 g/ha (Lolium perenne (LOLPE); [10]): 90%

Question: What does the source list for `Cc1cc(-c2ncc(F)cc2F)cc(C)c1C1C(=O)CC(CC(=O)NCc2cccc(Cl)c2)C1=O` (centres unmarked) [Compound B33]?
Answer: pest or weed control at 250 g/ha [1, 3]: 100%; pest or weed control at 250 g/ha [1, 4]: 100%; pest or weed control at 250 g/ha (Avena fatua (AVEFA); [5]): 100%; pest or weed control at 250 g/ha (Avena fatua (AVEFA); [6]): 100%; pest or weed control at 250 g/ha [2, 7]: 90%; pest or weed control at 250 g/ha [2, 8]: 100%; pest or weed control at 250 g/ha (Lolium perenne (LOLPE); [9]): 90%; pest or weed control at 250 g/ha (Lolium perenne (LOLPE); [10]): 100%

Question: How did the pest or weed control at 250 g/ha [1, 3] turn out when `C#Cc1ccc(CNC(=O)CC2CC(=O)C(c3c(C)cc(C)cc3C)C2=O)cc1` (centres unmarked) [Compound B34] was run?
Answer: Its pest or weed control at 250 g/ha is 100%.

Question: What about the pest or weed control at 250 g/ha [1, 4] of the same compound?
Answer: Its pest or weed control at 250 g/ha is 100%.

Question: And the pest or weed control at 250 g/ha (Avena fatua (AVEFA); [5])?
Answer: The pest or weed control at 250 g/ha was 90%.

Question: What about the pest or weed control at 250 g/ha (Avena fatua (AVEFA); [6]) of the same compound?
Answer: The pest or weed control at 250 g/ha was 80%.

Question: What about the pest or weed control at 250 g/ha [2, 7] of the same compound?
Answer: Its pest or weed control at 250 g/ha is 60%.

Question: What about the pest or weed control at 250 g/ha [2, 8] of the same compound?
Answer: The pest or weed control at 250 g/ha was 70%.

Question: And the pest or weed control at 250 g/ha (Lolium perenne (LOLPE); [9])?
Answer: Its pest or weed control at 250 g/ha is 80%.

Question: What about the pest or weed control at 250 g/ha (Lolium perenne (LOLPE); [10]) of the same compound?
Answer: The pest or weed control at 250 g/ha was 90%.

Question: With `CC#CC(C)(C)NC(=O)CC1CC(=O)C(c2c(C)cc(C)cc2C)C1=O` (centres unmarked) [Compound B35] as the compound, how does the pest or weed control at 250 g/ha [1, 3] read?
Answer: Its pest or weed control at 250 g/ha is 70%.

Question: And the pest or weed control at 250 g/ha [1, 4]?
Answer: The pest or weed control at 250 g/ha was 80%.

Question: What about the pest or weed control at 250 g/ha (Avena fatua (AVEFA); [5]) of the same compound?
Answer: Its pest or weed control at 250 g/ha is 70%.

Question: What about the pest or weed control at 250 g/ha (Avena fatua (AVEFA); [6]) of the same compound?
Answer: Its pest or weed control at 250 g/ha is 0%.

Question: What about the pest or weed control at 250 g/ha [2, 7] of the same compound?
Answer: Its pest or weed control at 250 g/ha is 80%.

Question: And the pest or weed control at 250 g/ha [2, 8]?
Answer: The pest or weed control at 250 g/ha was 90%.

Question: What about the pest or weed control at 250 g/ha (Lolium perenne (LOLPE); [9]) of the same compound?
Answer: The pest or weed control at 250 g/ha was 70%.

Question: And the pest or weed control at 250 g/ha (Lolium perenne (LOLPE); [10])?
Answer: Its pest or weed control at 250 g/ha is 80%.

Question: Which results are given for `Cc1cc(C)c(C2C(=O)CC(CC(=O)NCC#CCCl)C2=O)c(C)c1` (centres unmarked) [Compound B36]?
Answer: pest or weed control at 250 g/ha [1, 3]: 20%; pest or weed control at 250 g/ha [1, 4]: 0%; pest or weed control at 250 g/ha (Avena fatua (AVEFA); [5]): 40%; pest or weed control at 250 g/ha (Avena fatua (AVEFA); [6]): 0%; pest or weed control at 250 g/ha [2, 7]: 30%; pest or weed control at 250 g/ha [2, 8]: 50%; pest or weed control at 250 g/ha (Lolium perenne (LOLPE); [9]): 50%; pest or weed control at 250 g/ha (Lolium perenne (LOLPE); [10]): 80%

Question: `C#CCCNC(=O)CC1CC(=O)C(c2c(C)cc(C)cc2C)C1=O` (centres unmarked) [Compound B37] was tested. Which pest or weed control at 250 g/ha [1, 3] did it give?
Answer: Its pest or weed control at 250 g/ha is 90%.

Question: What about the pest or weed control at 250 g/ha [1, 4] of the same compound?
Answer: The pest or weed control at 250 g/ha was 90%.

Question: What about the pest or weed control at 250 g/ha (Avena fatua (AVEFA); [5]) of the same compound?
Answer: Its pest or weed control at 250 g/ha is 100%.

Question: What about the pest or weed control at 250 g/ha (Avena fatua (AVEFA); [6]) of the same compound?
Answer: The pest or weed control at 250 g/ha was 90%.

Question: And the pest or weed control at 250 g/ha [2, 7]?
Answer: Its pest or weed control at 250 g/ha is 70%.

Question: What about the pest or weed control at 250 g/ha [2, 8] of the same compound?
Answer: Its pest or weed control at 250 g/ha is 70%.

Question: What about the pest or weed control at 250 g/ha (Lolium perenne (LOLPE); [9]) of the same compound?
Answer: Its pest or weed control at 250 g/ha is 80%.

Question: And the pest or weed control at 250 g/ha (Lolium perenne (LOLPE); [10])?
Answer: Its pest or weed control at 250 g/ha is 100%.

Question: With `C#CCN(C)C(=O)CC1CC(=O)C(c2c(C)cc(C)cc2C)C1=O` (centres unmarked) [Compound B38] as the compound, how does the pest or weed control at 250 g/ha [1, 3] read?
Answer: The pest or weed control at 250 g/ha was 90%.

Question: And the pest or weed control at 250 g/ha [1, 4]?
Answer: The pest or weed control at 250 g/ha was 100%.

Question: What about the pest or weed control at 250 g/ha (Avena fatua (AVEFA); [5]) of the same compound?
Answer: The pest or weed control at 250 g/ha was 90%.

Question: What about the pest or weed control at 250 g/ha (Avena fatua (AVEFA); [6]) of the same compound?
Answer: The pest or weed control at 250 g/ha was 60%.

Question: What about the pest or weed control at 250 g/ha [2, 7] of the same compound?
Answer: The pest or weed control at 250 g/ha was 70%.

Question: And the pest or weed control at 250 g/ha [2, 8]?
Answer: Its pest or weed control at 250 g/ha is 70%.

Question: What about the pest or weed control at 250 g/ha (Lolium perenne (LOLPE); [9]) of the same compound?
Answer: Its pest or weed control at 250 g/ha is 90%.

Question: And the pest or weed control at 250 g/ha (Lolium perenne (LOLPE); [10])?
Answer: The pest or weed control at 250 g/ha was 100%.

Question: For `Cc1cc(C)c(C2C(=O)CC(CC(=O)NC(C)(C)CCl)C2=O)c(C)c1` (centres unmarked) [Compound B39], which pest or weed control at 250 g/ha [1, 3] is on record?
Answer: Its pest or weed control at 250 g/ha is 50%.

Question: What about the pest or weed control at 250 g/ha [1, 4] of the same compound?
Answer: Its pest or weed control at 250 g/ha is 0%.

Question: And the pest or weed control at 250 g/ha (Avena fatua (AVEFA); [5])?
Answer: The pest or weed control at 250 g/ha was 70%.

Question: What about the pest or weed control at 250 g/ha (Avena fatua (AVEFA); [6]) of the same compound?
Answer: Its pest or weed control at 250 g/ha is 30%.

Question: What about the pest or weed control at 250 g/ha [2, 7] of the same compound?
Answer: The pest or weed control at 250 g/ha was 80%.

Question: What about the pest or weed control at 250 g/ha [2, 8] of the same compound?
Answer: Its pest or weed control at 250 g/ha is 30%.

Question: What about the pest or weed control at 250 g/ha (Lolium perenne (LOLPE); [9]) of the same compound?
Answer: Its pest or weed control at 250 g/ha is 60%.

Question: And the pest or weed control at 250 g/ha (Lolium perenne (LOLPE); [10])?
Answer: Its pest or weed control at 250 g/ha is 60%.
